Measured values published in ChEMBL document CHEMBL5724914, “Linking interpersonal differences in gut microbiota composition and drug biotransformation activity” (2024).

Experiments:
[1] = The drug is tested on Z-022 corresponding to mouse gut metagenome with ENA study accession number: PRJEB37062 and ENA sample accession number: ERS12561821 for biotransformation under anaerobic condition. The drug concentrations were measured over 9 timepoints collected between 0 and 24 hours of incubation by liquid-chromatography-coupled mass spectrometry (LC–MS); conditions: 2 µM
[2] = The drug is tested on Z-016 corresponding to mouse gut metagenome with ENA study accession number: PRJEB37062 and ENA sample accession number: ERS12561815 for biotransformation under anaerobic condition. The drug concentrations were measured over 9 timepoints collected between 0 and 24 hours of incubation by liquid-chromatography-coupled mass spectrometry (LC–MS); conditions: 2 µM
[3] = The drug is tested on Z-011 corresponding to mouse gut metagenome with ENA study accession number: PRJEB37062 and ENA sample accession number: ERS12561811 for biotransformation under anaerobic condition. The drug concentrations were measured over 9 timepoints collected between 0 and 24 hours of incubation by liquid-chromatography-coupled mass spectrometry (LC–MS); conditions: 2 µM
[4] = The drug is tested on Z-004 corresponding to metagenome with ENA study accession number: PRJEB37062 and ENA sample accession number: ERS12561804 for biotransformation under anaerobic condition. The drug concentrations were measured over 9 timepoints collected between 0 and 24 hours of incubation by liquid-chromatography-coupled mass spectrometry (LC–MS); conditions: 2 µM
[5] = The drug is tested on WLS-039 corresponding to human gut metagenome with ENA study accession number: PRJEB37062 and ENA sample accession number: ERS12561746 for biotransformation under anaerobic condition. The drug concentrations were measured over 9 timepoints collected between 0 and 24 hours of incubation by liquid-chromatography-coupled mass spectrometry (LC–MS); conditions: 2 µM
[6] = human gut metagenome, 24 h, 2 µM
[7] = human gut metagenome, 24 h, 2 µM; remark: listed apart in the source
[8] = human gut metagenome, 24 h, 2 µM; remark: listed apart in the source
[9] = human gut metagenome, 24 h, 2 µM; remark: listed apart in the source
Note: call rule not given here.

SMILES	Bacterial Biotransformation [1]	Bacterial Biotransformation [2]	Bacterial Biotransformation [3]	Bacterial Biotransformation [4]	Bacterial Biotransformation [5]	Bacterial Biotransformation [6]	Bacterial Biotransformation [7]	Bacterial Biotransformation [8]	Bacterial Biotransformation [9]
CN(C)C(=O)C(CCN1CCC(O)(c2ccc(Cl)cc2)CC1)(c1ccccc1)c1ccccc1 [LOPERAMIDE]	Compound metabolized	Compound metabolized	Compound NOT metabolized	Compound metabolized	Compound metabolized	Compound metabolized	Compound metabolized	Compound metabolized	Compound metabolized
CCCCc1nc(Cl)c(CO)n1Cc1ccc(-c2ccccc2-c2nn[nH]n2)cc1 [LOSARTAN]	Compound NOT metabolized	Compound NOT metabolized	Compound NOT metabolized	Compound NOT metabolized	Compound NOT metabolized	Compound metabolized	Compound metabolized	Compound metabolized	Compound metabolized
COC(=O)Nc1nc2ccc(C(=O)c3ccccc3)cc2[nH]1 [MEBENDAZOLE]	Compound metabolized	Compound metabolized	Compound metabolized	Compound metabolized	Compound metabolized	Compound NOT metabolized	Compound metabolized	Compound metabolized	Compound metabolized
COc1ccccc1OCC(O)COC(N)=O (stereo unspecified) [METHOCARBAMOL]	Compound NOT metabolized	Compound NOT metabolized	Compound NOT metabolized	Compound NOT metabolized	Compound NOT metabolized	Compound NOT metabolized	Compound NOT metabolized	Compound NOT metabolized	Compound NOT metabolized
CC[C@@H](CO)NC(=O)[C@@H]1C=C2c3cccc4c3c(cn4C)C[C@H]2N(C)C1.O=C(O)/C=C\C(=O)O [METHYSERGIDE MALEATE]	Compound NOT metabolized	Compound NOT metabolized	Compound NOT metabolized	Compound NOT metabolized	Compound NOT metabolized	Compound NOT metabolized	Compound NOT metabolized	Compound NOT metabolized	Compound NOT metabolized
CCN(CC)CCNC(=O)c1cc(Cl)c(N)cc1OC [METOCLOPRAMIDE]	Compound NOT metabolized	Compound NOT metabolized	Compound NOT metabolized	Compound NOT metabolized	Compound NOT metabolized	Compound NOT metabolized	Compound NOT metabolized	Compound NOT metabolized	Compound NOT metabolized
Cc1ccccc1N1C(=O)c2cc(S(N)(=O)=O)c(Cl)cc2NC1C (stereo unspecified) [METOLAZONE]	Compound NOT metabolized	Compound NOT metabolized	Compound NOT metabolized	Compound NOT metabolized	Compound NOT metabolized	Compound metabolized	Compound NOT metabolized	Compound NOT metabolized	Compound metabolized
COCCc1ccc(OCC(O)CNC(C)C)cc1.COCCc1ccc(OCC(O)CNC(C)C)cc1.O=C(O)C(O)C(O)C(=O)O (stereo unspecified) [METOPROLOL TARTRATE]	Compound NOT metabolized	Compound NOT metabolized	Compound NOT metabolized	Compound NOT metabolized	Compound NOT metabolized	Compound metabolized	Compound NOT metabolized	Compound NOT metabolized	Compound metabolized
COc1c(C)c2c(c(O)c1C/C=C(\C)CCC(=O)OCCN1CCOCC1)C(=O)OC2 [MYCOPHENOLATE MOFETIL]	Compound metabolized	Compound metabolized	Compound metabolized	Compound metabolized	Compound metabolized	Compound metabolized	Compound metabolized	Compound NOT metabolized	Compound metabolized
CCN(CC)CCOC(=O)C(Cc1cccc2ccccc12)CC1CCCO1.O=C(O)C(=O)O (stereo unspecified) [NAFRONYL OXALATE]	Compound metabolized	Compound metabolized	Compound NOT metabolized	Compound metabolized	Compound metabolized	Compound metabolized	Compound NOT metabolized	Compound metabolized	Compound metabolized
C=CCN1CC[C@]23c4c5ccc(O)c4O[C@H]2C(=O)CC[C@@]3(O)[C@H]1C5 [NALOXONE]	Compound NOT metabolized	Compound NOT metabolized	Compound NOT metabolized	Compound NOT metabolized	Compound NOT metabolized	Compound NOT metabolized	Compound NOT metabolized	Compound NOT metabolized	Compound NOT metabolized
CCc1nn(CCCN2CCN(c3cccc(Cl)c3)CC2)c(=O)n1CCOc1ccccc1 [NEFAZODONE]	Compound NOT metabolized	Compound NOT metabolized	Compound NOT metabolized	Compound NOT metabolized	Compound metabolized	Compound NOT metabolized	Compound NOT metabolized	Compound metabolized	Compound metabolized
CN1CCOC(c2ccccc2)c2ccccc2C1 (stereo unspecified) [NEFOPAM]	Compound NOT metabolized	Compound NOT metabolized	Compound NOT metabolized	Compound NOT metabolized	Compound NOT metabolized	Compound metabolized	Compound NOT metabolized	Compound NOT metabolized	Compound metabolized
Cc1ccnc2c1NC(=O)c1cccnc1N2C1CC1 [NEVIRAPINE]	Compound NOT metabolized	Compound NOT metabolized	Compound NOT metabolized	Compound NOT metabolized	Compound NOT metabolized	Compound metabolized	Compound NOT metabolized	Compound NOT metabolized	Compound metabolized
